Among the data in ChEMBL document CHEMBL2429867, “Generation by mutasynthesis of potential neuroprotectant derivatives of the bipyridyl collismycin A” (2013) are Activity values, retold here.

Each structure is given as a SMILES string.

The species entered for this test is Danio rerio. The test is described as follows: Neuroprotective activity in 3 days postfertilized zebrafish larvae assessed as reduction of all-trans retinoic acid-induced apoptosis at 1 uM after 24 hrs by fluorescence microscopy. It is filed as functional. Set-up: scale not given: the % may be the effect or the level left.
With `COc1cc(-c2cccc(C)n2)nc(/C=N/O)c1SC`, the Activity is reported as 40%.

On to `COc1cc(-c2cc(C)ccn2)nc(/C=N/O)c1SC`, for which the Activity stood at 70%.

On to `O=C(O)CCCCC1CCSS1` (stereo not drawn) [LIPOIC ACID, ALPHA], for which the Activity amounted to 61%.
